Test results published in patent US20130023563A1, “AMIDINOANILINE DERIVATIVE” (AJINOMOTO CO., INC., priority 2010, published 2013).
Counter-ions that a name gives are not always drawn.

How the values were obtained:
Type in all cases: biochemical
[1] = biological target: FXa (Homo sapiens, UniProt P00742); test: Measurement of inhibitory activity against activated factor X (chromogenic substrate S-2222); conditions: 0.015 U/ml FXa, 0.2 mM S-2222, absorbance 405 nm; read-out: FXa (pIC50) (converted)
Sequence of FXa (P00742 235-488 limits assumed): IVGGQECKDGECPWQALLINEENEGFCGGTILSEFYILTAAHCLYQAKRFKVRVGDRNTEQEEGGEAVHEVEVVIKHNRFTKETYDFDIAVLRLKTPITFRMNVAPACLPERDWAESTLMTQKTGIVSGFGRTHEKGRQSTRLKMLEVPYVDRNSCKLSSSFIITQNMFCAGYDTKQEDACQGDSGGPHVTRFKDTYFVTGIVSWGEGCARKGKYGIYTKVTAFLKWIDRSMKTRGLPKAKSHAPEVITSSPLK
Sequence of FXa (P00742 41-179 partner limits assumed): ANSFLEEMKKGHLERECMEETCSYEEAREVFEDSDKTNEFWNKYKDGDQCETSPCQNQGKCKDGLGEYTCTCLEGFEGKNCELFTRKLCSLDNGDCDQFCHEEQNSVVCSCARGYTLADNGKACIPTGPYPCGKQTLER
Description: Experimental Example 1 Measurement of Inhibitory Activity Against Activated Factor X Activity
(§1) Using a 96-well plate (#3396, Costar), 100 mM Tris-HC1 buffer (130 μL) containing 0.02% Tween 20, 0.1% PEG6000 and 0.2M NaCl was admixed with 0.015 U/ml FXa (10 μL) and a test compound (10 μL) for 10 min and a color developing substrate 0.2 mM S-2222 (50 μL) was added. Using a microplate reader Benchmark Plus (BIO-RAD), the reaction rate was measured from the time course changes at absorbance 405 nm. Using the reaction rate of the control as 100%, the negative logarithmic value of the concentration that can suppress the reaction rate of the control by 50% was taken as the pIC50 value.

[2] = biological target: activated factor IIa (thrombin) (Homo sapiens, UniProt P00734); test: Measurement of inhibitory activity against activated factor II (chromogenic substrate S-2238); conditions: 0.125 U/ml thrombin, 0.1 mM S-2238, absorbance 405 nm; read-out: FIIa (pIC50) (converted)
Description: Experimental Example 2 Measurement of Inhibitory Activity Against Activated Factor II (FIIa, Thrombin)
as §1, with “mM Tris-HCl” for “mM Tris-HC1”, “with 0.125” for “with 0.015”, “U/ml activated factor IIa (thrombin)” for “U/ml FXa”, “substrate 0.1” for “substrate 0.2”, “mM S-2238” for “mM S-2222”

[3] = test system: human plasma; test: Anti-blood coagulant activity, aPTT method, Sysmex Cs-2000i (Experimental Example 3-2); conditions: negative logarithmic value of the concentration that prolongs aPTT of the control 2 times
Description: Experimental Example 3-2 Measurement of Anti-Blood Coagulant Activity
An aPTT measurement method using totally automatic blood coagulation time measuring apparatus Sysmex Cs-2000i was used. A 10 mg/ml DDVP solution (DDVP standard product, Wako) (8 μL) and a test compound solution (40 μL) were placed in a sample tube (MS-18, Japan Medical Science), human plasma (standard human plasma for blood coagulation test, GCH-100A, Sysmex) (360 μL) was added and the mixture was used as a test sample. The test sample (50 μL) was incubated at 37° C. for 1 min, data fi APTT (rabbit brain-derived cephalin, DADE Behiring) (50 μL) was added, and the mixture was further incubated at 37° C. for 2 min. To the sample solution was added 0.02M calcium chloride (50 μL), and the time until plasma coagulation was automatically measured.
As the anti-blood coagulant activity, the negative logarithmic value of the concentration that prolongs aPTT of the control 2 times is shown as paPTT2.

Work on CC(=N)N1CCC(Oc2ccc(OC(=O)[C@H](C)N(C)c3cccc(C(=N)N)c3)cc2)CC1 [compound of Ex. 6, 4-[(1-ethanimidoylpiperidin-4-yl)oxy]phenyl N-{3-[amino(imino)methyl]phenyl}-N-methyl-L-alaninate 2 trifluoroacetate] yielded an IC50 [1] of 14.5 nM, an IC50 [2] of 33100 nM and a paPTT2 [3] of 6.81.

CC(=N)N1CCC(Oc2ccc(OC(=O)[C@@H](C)N(C)c3cccc(C(=N)N)c3)cc2)CC1 [compound of Ex. 7, 4-[(1-ethanimidoylpiperidin-4-yl)oxy]phenyl N-{3-[amino(imino)methyl]phenyl}-N-methyl-D-alaninate 2 trifluoroacetate] was tested, and the IC50 [1] was 21.4 nM, the IC50 [2] was 33100 nM and the paPTT2 [3] was 6.85.

N=C(N)c1cccc(N2C[C@H](O)C[C@H]2C(=O)Oc2ccc(C(=N)N3CCCC3)cc2)c1 [compound of Ex. 15, 4-[imino(pyrrolidin-1-yl)methyl]phenyl (4R)-1-[(3-[amino(imino)methyl]phenyl]-4-hydroxy-L-prolinate 2 trifluoroacetate] gave an IC50 [1] of 224 nM, an IC50 [2] of 28200 nM and a paPTT2 [3] of 5.68.

With N=C(N)c1cccc(N2CCCC[C@@H]2C(=O)Oc2ccc(C(=N)N3CCCC3)cc2Cl)c1 [compound of Ex. 20, 2-chloro-4-[imino(pyrrolidin-1-yl)methyl]phenyl (2R)-1-{3-[amino(imino)methyl]phenyl}piperidine-2-carboxylate 2 trifluoroacetate] the IC50 [1] was 6.46 nM, the IC50 [2] was 1200 nM and the paPTT2 [3] was 6.93.

N=C(N)c1cccc(N2CCCC[C@@H]2C(=O)Oc2ccc(C(=N)N3CCCC3)cc2F)c1 [compound of Ex. 21, 2-fluoro-4-[imino(pyrrolidin-1-yl)methyl]phenyl (2R)-1-{3-[amino(imino)methyl]phenyl}piperidine-2-carboxylate 2 trifluoroacetate] gave an IC50 [1] of 5.13 nM, an IC50 [2] of 1910 nM and a paPTT2 [3] of 6.94.

CC(C)[C@@H](C(=O)Oc1ccc(C(=N)N2CCCC2)cc1)N(C)c1cccc(C(=N)N)c1 [compound of Ex. 28, 4-[imino(pyrrolidin-1-yl)methyl]phenyl N-{3-[amino(imino)methyl]phenyl}-N-methyl-L-valinate 2 trifluoroacetate] was tested, and the IC50 [1] was 30.9 nM, the IC50 [2] was 14100 nM and the paPTT2 [3] was 6.55.

CC(C)C[C@@H](C(=O)Oc1ccc(C(=N)N2CCCC2)cc1)N(C)c1cccc(C(=N)N)c1 [compound of Ex. 29, 4-[imino(pyrrolidin-1-yl)methyl]phenyl N-{3-[amino(imino)methyl]phenyl}-N-methyl-L-leucinate 2 trifluoroacetate] showed an IC50 [1] of 11.2 nM, an IC50 [2] of 25700 nM and a paPTT2 [3] of 6.72.

For CCC(C)[C@@H](C(=O)Oc1ccc(C(=N)N2CCCC2)cc1)N(C)c1cccc(C(=N)N)c1 (stereo partly drawn) [compound of Ex. 33, 4-[imino(pyrrolidin-1-yl)methyl]phenyl N-{3-[amino(imino)methyl]phenyl}-N-methyl-L-isoleucinate 2 trifluoroacetate], the IC50 [1] was 8.13 nM, the IC50 [2] was 13200 nM and the paPTT2 [3] was 6.80.

COc1cc(C(=N)N2CCCC2)ccc1OC(=O)[C@H](C)N(C)c1cccc(C(=N)N)c1 [compound of Ex. 36, 4-[imino(pyrrolidin-1-yl)methyl]-2-methoxyphenyl N-{3-[amino(imino)methyl]phenyl}-N-methyl-L-alaninate 2 trifluoroacetate] gave an IC50 [1] of 31.6 nM, an IC50 [2] of 7080 nM and a paPTT2 [3] of 6.67.

In the case of CC(=N)N1CCC(Oc2ccc(OC(=O)c3cc(C(F)(F)F)nn3-c3cccc(C(=N)N)c3)cc2)CC1 [compound of Ex. 57, 4-[(1-ethanimidoylpiperidin-4-yl)oxy]phenyl 1-{3-[amino(imino)methyl]phenyl}-3-(trifluoromethyl)-1H-pyrazole-5-carboxylate 2 trifluoroacetate], the IC50 [1] was 5.37 nM and the IC50 [2] was 6920 nM.
